According to PubChem BioAssay AID1918932 (Molecular Pharmacology Branch, DTP, NCI, 2023):

Test system: 171881-019-R-J1-PDC complex spheroid viability
Assay: Anticancer human tumor 171881-019-R-J1-PDC patient-derived invasive breast carcinoma cell line growth inhibition
Conditions: for IC50: curve of first compound; for viability, T/C: stronger effect = lower value
Outline: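 Multicellular complex spheroids of tumor cells with human endothelial cells (HUVEC) and mesenchymal stem cells; the LSD1 inhibitor iadademstat was combined with standard-of-care or investigational agents. Top concentration at or near clinical Cmax, half-log dilutions; final DMSO ≤0.25%.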

[1] = second compound 0.1 µM, first compound 0.0316 µM
[2] = second compound 0.1 µM, first compound 0.1 µM
[3] = second compound 0.1 µM, first compound 0.316 µM
[4] = second compound 0.1 µM, first compound 1 µM
[5] = second compound 0.316 µM, first compound 0.0316 µM
[6] = second compound 0.316 µM, first compound 0.1 µM
[7] = second compound 0.316 µM, first compound 0.316 µM
[8] = second compound 0.316 µM, first compound 1 µM
[9] = second compound 1 µM, first compound 0.0316 µM
[10] = second compound 1 µM, first compound 0.1 µM
[11] = second compound 1 µM, first compound 0.316 µM
[12] = second compound 1 µM, first compound 1 µM
[13] = second compound 3.16 µM, first compound 0.0316 µM
[14] = second compound 3.16 µM, first compound 0.1 µM
[15] = second compound 3.16 µM, first compound 0.316 µM
[16] = second compound 3.16 µM, first compound 1 µM
[17] = second compound 10 µM, first compound 0.0316 µM
[18] = second compound 10 µM, first compound 0.1 µM
[19] = second compound 10 µM, first compound 0.316 µM
[20] = second compound 10 µM, first compound 1 µM
[21] = second compound 0.1 µM, first compound 0.00949 µM
[22] = second compound 0.1 µM, first compound 0.03 µM
[23] = second compound 0.1 µM, first compound 0.0949 µM
[24] = second compound 0.1 µM, first compound 0.3 µM
[25] = second compound 0.1 µM, first compound 0.949 µM
[26] = second compound 0.1 µM, first compound 3 µM
[27] = second compound 0.316 µM, first compound 0.00949 µM
[28] = second compound 0.316 µM, first compound 0.03 µM
[29] = second compound 0.316 µM, first compound 0.0949 µM
[30] = second compound 0.316 µM, first compound 0.3 µM
[31] = second compound 0.316 µM, first compound 0.949 µM
[32] = second compound 0.316 µM, first compound 3 µM
[33] = second compound 1 µM, first compound 0.00949 µM
[34] = second compound 1 µM, first compound 0.03 µM
[35] = second compound 1 µM, first compound 0.0949 µM
[36] = second compound 1 µM, first compound 0.3 µM
[37] = second compound 1 µM, first compound 0.949 µM
[38] = second compound 1 µM, first compound 3 µM
[39] = second compound 3.16 µM, first compound 0.00949 µM
[40] = second compound 3.16 µM, first compound 0.03 µM
[41] = second compound 3.16 µM, first compound 0.0949 µM
[42] = second compound 3.16 µM, first compound 0.3 µM
[43] = second compound 3.16 µM, first compound 0.949 µM
[44] = second compound 3.16 µM, first compound 3 µM
[45] = second compound 10 µM, first compound 0.00949 µM
[46] = second compound 10 µM, first compound 0.03 µM
[47] = second compound 10 µM, first compound 0.0949 µM
[48] = second compound 10 µM, first compound 0.3 µM
[49] = second compound 10 µM, first compound 0.949 µM
[50] = second compound 10 µM, first compound 3 µM
[51] = second compound 0.1 µM, first compound 0.00316 µM
[52] = second compound 0.1 µM, first compound 0.01 µM
[53] = second compound 0.316 µM, first compound 0.00316 µM
[54] = second compound 0.316 µM, first compound 0.01 µM
[55] = second compound 1 µM, first compound 0.00316 µM
[56] = second compound 1 µM, first compound 0.01 µM
[57] = second compound 3.16 µM, first compound 0.00316 µM
[58] = second compound 3.16 µM, first compound 0.01 µM
[59] = second compound 10 µM, first compound 0.00316 µM
[60] = second compound 10 µM, first compound 0.01 µM
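Also: spheroids exposed to agents for 7 days after 3 days growth.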

Compound: CC1(C)CCC(CN2CCN(c3ccc(C(=O)NS(=O)(=O)c4ccc(NCC5CCOCC5)c([N+](=O)[O-])c4)c(Oc4cnc5[nH]ccc5c4)c3)CC2)=C(c2ccc(Cl)cc2)C1 + NC1CC1c1ccc(-c2cccc(O)c2)cc1
- IC50 (second compound 0.1 µM): 1410 nM
- IC50 (second compound 0.316 µM): 1490 nM
- IC50 (second compound 1 µM): 1450 nM
- IC50 (second compound 3.16 µM): 1450 nM
- IC50 (second compound 10 µM): 1300 nM
- viability, T/C [1]: 101%
- viability, T/C [2]: 97.9%
- viability, T/C [3]: 87.8%
- viability, T/C [4]: 63%
- viability, T/C (second compound 0.1 µM, first compound 3.16 µM): 21.7%
- viability, T/C (second compound 0.1 µM, first compound 10 µM): 9.08%
- viability, T/C [5]: 103%
- viability, T/C [6]: 95.7%
- viability, T/C [7]: 92.3%
- viability, T/C [8]: 64.4%
- viability, T/C (second compound 0.316 µM, first compound 3.16 µM): 22.9%
- viability, T/C (second compound 0.316 µM, first compound 10 µM): 4.28%
- viability, T/C [9]: 103%
- viability, T/C [10]: 102%
- viability, T/C [11]: 88.4%
- viability, T/C [12]: 64.2%
- viability, T/C (second compound 1 µM, first compound 3.16 µM): 22.3%
- viability, T/C (second compound 1 µM, first compound 10 µM): 4%
- viability, T/C [13]: 94.5%
- viability, T/C [14]: 92.7%
- viability, T/C [15]: 86.3%
- viability, T/C [16]: 63.2%
- viability, T/C (second compound 3.16 µM, first compound 3.16 µM): 22.8%
- viability, T/C (second compound 3.16 µM, first compound 10 µM): 4.22%
- viability, T/C [17]: 84.5%
- viability, T/C [18]: 82.5%
- viability, T/C [19]: 77.1%
- viability, T/C [20]: 59%
- viability, T/C (second compound 10 µM, first compound 3.16 µM): 21.2%
- viability, T/C (second compound 10 µM, first compound 10 µM): 3.96%

Compound: CCN(c1cc(-c2ccc(CN3CCOCC3)cc2)cc(C(=O)NCc2c(C)cc(C)[nH]c2=O)c1C)C1CCOCC1 + NC1CC1c1ccc(-c2cccc(O)c2)cc1
- IC50 (second compound 0.1 µM): 2130 nM
- IC50 (second compound 0.316 µM): 2050 nM
- IC50 (second compound 1 µM): 1840 nM
- IC50 (second compound 3.16 µM): 1510 nM
- IC50 (second compound 10 µM): 1180 nM
- viability, T/C [21]: 102%
- viability, T/C [22]: 109%
- viability, T/C [23]: 102%
- viability, T/C [24]: 84.8%
- viability, T/C [25]: 68%
- viability, T/C [26]: 42.7%
- viability, T/C [27]: 102%
- viability, T/C [28]: 107%
- viability, T/C [29]: 105%
- viability, T/C [30]: 88.4%
- viability, T/C [31]: 66.8%
- viability, T/C [32]: 42%
- viability, T/C [33]: 99.3%
- viability, T/C [34]: 108%
- viability, T/C [35]: 96.6%
- viability, T/C [36]: 74.9%
- viability, T/C [37]: 61%
- viability, T/C [38]: 43%
- viability, T/C [39]: 96%
- viability, T/C [40]: 91.7%
- viability, T/C [41]: 90.6%
- viability, T/C [42]: 75.2%
- viability, T/C [43]: 59%
- viability, T/C [44]: 37.6%
- viability, T/C [45]: 78.5%
- viability, T/C [46]: 77.4%
- viability, T/C [47]: 82.2%
- viability, T/C [48]: 60.2%
- viability, T/C [49]: 55.7%
- viability, T/C [50]: 38.8%

Compound: COc1cc(Nc2ncc3c(n2)-c2ccc(Cl)cc2C(c2c(F)cccc2OC)=NC3)ccc1C(=O)O + NC1CC1c1ccc(-c2cccc(O)c2)cc1
- IC50 (second compound 0.1 µM): 442 nM
- IC50 (second compound 0.316 µM): 506 nM
- IC50 (second compound 1 µM): 517 nM
- IC50 (second compound 3.16 µM): 380 nM
- IC50 (second compound 10 µM): 301 nM
- viability, T/C [51]: 59.8%
- viability, T/C [52]: 67.3%
- viability, T/C [1]: 64.1%
- viability, T/C [2]: 62.7%
- viability, T/C [3]: 58.5%
- viability, T/C [4]: 29.4%
- viability, T/C [53]: 60.5%
- viability, T/C [54]: 68.1%
- viability, T/C [5]: 68%
- viability, T/C [6]: 65.7%
- viability, T/C [7]: 61.9%
- viability, T/C [8]: 32.6%
- viability, T/C [55]: 67.2%
- viability, T/C [56]: 70%
- viability, T/C [9]: 68.7%
- viability, T/C [10]: 69.2%
- viability, T/C [11]: 63.2%
- viability, T/C [12]: 31.9%
- viability, T/C [57]: 71.3%
- viability, T/C [58]: 75.5%
- viability, T/C [13]: 72.5%
- viability, T/C [14]: 69.1%
- viability, T/C [15]: 54.7%
- viability, T/C [16]: 25.4%
- viability, T/C [59]: 59.4%
- viability, T/C [60]: 61%
- viability, T/C [17]: 64.1%
- viability, T/C [18]: 56.9%
- viability, T/C [19]: 49.9%
- viability, T/C [20]: 25.3%

Compound: Cn1ncnc1C1c2n[nH]c(=O)c3cc(F)cc(c23)NC1c1ccc(F)cc1 (stereo not given) + NC1CC1c1ccc(-c2cccc(O)c2)cc1
- IC50 (second compound 0.1 µM): > 100 nM
- IC50 (second compound 0.316 µM): > 100 nM
- IC50 (second compound 1 µM): > 100 nM
- IC50 (second compound 3.16 µM): > 100 nM
- IC50 (second compound 10 µM): > 100 nM
- viability, T/C (second compound 0.1 µM, first compound 0.000316 µM): 105%
- viability, T/C (second compound 0.1 µM, first compound 0.001 µM): 106%
- viability, T/C [51]: 107%
- viability, T/C [52]: 104%
- viability, T/C [1]: 105%
- viability, T/C [2]: 102%
- viability, T/C (second compound 0.316 µM, first compound 0.000316 µM): 106%
- viability, T/C (second compound 0.316 µM, first compound 0.001 µM): 111%
- viability, T/C [53]: 109%
- viability, T/C [54]: 108%
- viability, T/C [5]: 108%
- viability, T/C [6]: 102%
- viability, T/C (second compound 1 µM, first compound 0.000316 µM): 105%
- viability, T/C (second compound 1 µM, first compound 0.001 µM): 106%
- viability, T/C [55]: 111%
- viability, T/C [56]: 108%
- viability, T/C [9]: 103%
- viability, T/C [10]: 103%
- viability, T/C (second compound 3.16 µM, first compound 0.000316 µM): 97.2%
- viability, T/C (second compound 3.16 µM, first compound 0.001 µM): 104%
- viability, T/C [57]: 101%
- viability, T/C [58]: 102%
- viability, T/C [13]: 98.6%
- viability, T/C [14]: 96.8%
- viability, T/C (second compound 10 µM, first compound 0.000316 µM): 85.3%
- viability, T/C (second compound 10 µM, first compound 0.001 µM): 91.2%
- viability, T/C [59]: 90.8%
- viability, T/C [60]: 83%
- viability, T/C [17]: 83.3%
- viability, T/C [18]: 81.3%

Compound: NS(=O)(=O)OCC1CC(n2ccc3c(NC4CCc5ccccc54)ncnc32)CC1O (stereo not given) + NC1CC1c1ccc(-c2cccc(O)c2)cc1
- IC50 (second compound 0.1 µM): 10.3 nM
- IC50 (second compound 0.316 µM): 11.3 nM
- IC50 (second compound 1 µM): 10.1 nM
- IC50 (second compound 3.16 µM): 12.8 nM
- IC50 (second compound 10 µM): < 9.49 nM
- viability, T/C [21]: 51.1%
- viability, T/C [22]: 36.4%
- viability, T/C [23]: 26.7%
- viability, T/C [24]: 27.4%
- viability, T/C [25]: 27.1%
- viability, T/C [26]: 23.3%
- viability, T/C [27]: 52.9%
- viability, T/C [28]: 36.4%
- viability, T/C [29]: 31.3%
- viability, T/C [30]: 28.1%
- viability, T/C [31]: 31.8%
- viability, T/C [32]: 21.4%
- viability, T/C [33]: 51.3%
- viability, T/C [34]: 27.4%
- viability, T/C [35]: 27.8%
- viability, T/C [36]: 30%
- viability, T/C [37]: 27.5%
- viability, T/C [38]: 21.9%
- viability, T/C [39]: 56.5%
- viability, T/C [40]: 31.2%
- viability, T/C [41]: 26%
- viability, T/C [42]: 24.1%
- viability, T/C [43]: 26.9%
- viability, T/C [44]: 21.1%
- viability, T/C [45]: 45.1%
- viability, T/C [46]: 30.6%
- viability, T/C [47]: 27.1%
- viability, T/C [48]: 27.6%
- viability, T/C [49]: 25.4%
- viability, T/C [50]: 19.5%
